From BindingDB's records for doi:10.1016/s0960-894x(01)00039-7 (Glaxosmithkline, 2001)

Molecular target: Tyrosine--tRNA ligase (Staphylococcus aureus)
Experiment: Inhibitory activity against Staphylococcus aureus tyrosyl tRNA synthetase (YRS) using aminoacylation assay

IC50: 260 nM
Compound: N[C@@H](Cc1ccc(O)cc1)C(=O)N[C@@H](C(=O)O)[C@@H]1OC[C@H](O)[C@H](O)[C@H]1O [[2-Amino-3-((S)-4-hydroxy-phenyl)-propionylamino]-((2S,3R,4S,5S)-3,4,5-trihydroxy-tetrahydro-pyran-2-yl)-acetic acid]
